Experiments:
ALOMY [1] = test: Pre-emergence action against ALOMY; type: in vivo, Alopecurus myosuroides; details: dosage 320 g/ha, pre-emergence, scored visually after 3 weeks vs untreated controls, 100% = plants have died, 0% = like control plants
Method in brief: (§1)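 Seeds sown in sandy loam in wood-fiber pots and covered with soil. Greenhouse growth; visual damage scored after 3 weeks versus untreated controls (100% = dead, 0% = like control).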

AVEFA [2] = test: Pre-emergence action against AVEFA; type: in vivo, Avena fatua; details: dosage 320 g/ha, scored visually after 3 weeks vs untreated controls
Method in brief: as §1

CYPES [3] = test: Pre-emergence action against CYPES; type: in vivo, Cyperus esculentus; details: pre-emergence, dosage 320 g/ha, scored visually after 3 weeks vs untreated controls
Method in brief: as §1

ECHCG [4] = test: Pre-emergence action against ECHCG; type: in vivo, Echinochloa crus-galli; details: pre-emergence, dosage 320 g/ha, scored visually after 3 weeks vs untreated controls
Method in brief: as §1

LOLMU [5] = test: Pre-emergence action against LOLMU; type: in vivo, Lolium multiflorum; details: dosage 320 g/ha, scored visually after 3 weeks vs untreated controls
Method in brief: as §1

SETVI [6] = test: Pre-emergence action against SETVI; type: in vivo, Setaria viridis; details: pre-emergence, dosage 320 g/ha, scored visually after 3 weeks vs untreated controls
Method in brief: as §1

ABUTH [7] = test: Pre-emergence action against ABUTH; type: in vivo, Abutilon theophrasti; details: pre-emergence, dosage 320 g/ha, scored visually after 3 weeks vs untreated controls
Method in brief: as §1

AMARE [8] = test: Pre-emergence action against AMARE; type: in vivo, Amaranthus retroflexus; details: pre-emergence, dosage 320 g/ha, scored visually after 3 weeks vs untreated controls
Method in brief: as §1

MATIN [9] = test: Pre-emergence action against MATIN; type: in vivo, Matricaria inodora; details: Dosage 320 g/ha, pre-emergence
Method in brief: as §1

POLCO [10] = test: Pre-emergence action against POLCO; type: in vivo, Polygonum convolvulus; details: Fallopia convolvulus, 504 h; Dosage 320 g/ha, pre-emergence
Method in brief: as §1

STEME [11] = test: Pre-emergence action against STEME; type: in vivo, Stellaria media; details: Dosage 320 g/ha, pre-emergence
Method in brief: as §1

VIOTR [12] = test: Pre-emergence action against VIOTR; type: in vivo, Viola tricolor; details: Dosage 320 g/ha, pre-emergence
Method in brief: as §1

VERPE [13] = test: Pre-emergence action against VERPE; type: in vivo, Veronica persica; details: Dosage 320 g/ha, pre-emergence
Method in brief: as §1

AVEFA [14] = test: Post-emergence action against AVEFA; type: in vivo, Avena fatua; details: post-emergence, dosage 80 g/ha, visual assessment about 3 weeks after treatment vs untreated controls
Method in brief: (§2)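 Post-emergence foliar spray on greenhouse plants at the one-leaf stage, using wettable-powder or emulsion-concentrate formulations in water (600 to […], plus 0.2% wetting agent). Damage scored by eye roughly 3 weeks later against untreated plants: 0% = like control, 100% = dead.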

CYPES [15] = test: Post-emergence action against CYPES; type: in vivo, Cyperus esculentus; details: Cyperus esculentus, 504 h; post-emergence, dosage 80 g/ha, visual assessment about 3 weeks after treatment vs untreated controls; read-out: Post-emergence action against CYPES (herbicidal action in percent)
Method in brief: as §2

ECHCG [16] = test: Post-emergence action against ECHCG; type: in vivo, Echinochloa crus-galli; details: post-emergence, dosage 80 g/ha, visual assessment about 3 weeks after treatment vs untreated controls
Method in brief: as §2

LOLMU [17] = test: Post-emergence action against LOLMU; type: in vivo, Lolium multiflorum; details: dosage 80 g/ha, visual assessment about 3 weeks after treatment vs untreated controls
Description: Seeds of monocotyledonous and dicotyledonous weed and crop plants are laid out in sandy loam soil in wood-fiber pots, covered with soil and cultivated in a greenhouse under good growth conditions. 2 to 3 weeks after sowing, the test plants are treated at the one-leaf stage. The compounds of the invention, formulated in the form of wettable powders (WP) or as emulsion concentrates (EC), are then sprayed onto the green parts of the plants in the form of an aqueous suspension or emulsion at a water application rate equating to […], with addition of 0.2% wetting agent. After the test plants have been left to stand in the greenhouse under optimal growth conditions for about 3 weeks, the action of the preparations is assessed visually in comparison to untreated controls (herbicidal action in percent (%): 100% activity=the plants have died, 0% activity=like control plants). […] At the same time, inventive compounds leave Gramineae crops such as barley, wheat, rye, millet/Sorghum, corn or rice virtually undamaged when applied post-emergence, even at high active ingredient dosages. In addition, some substances are also harmless to dicotyledonous crops such as soya, cotton, oilseed rape, sugar beet or potatoes. Some of the compounds according to the invention have high selectivity and are therefore suitable for controlling unwanted vegetation in agricultural crops by the post-emergence method. The data of Tables B18 to B34 below illustrate, in an exemplary manner, the […] herbicidal action of the compounds according to the invention, the herbicidal activity being stated in percent.

SETVI [18] = test: Post-emergence action against SETVI; type: in vivo, Setaria viridis; details: post-emergence, dosage 80 g/ha, visual assessment about 3 weeks after treatment vs untreated controls
Method in brief: as §2

ABUTH [19] = test: Post-emergence action against ABUTH; type: in vivo, Abutilon theophrasti; details: post-emergence, dosage 80 g/ha, visual assessment about 3 weeks after treatment vs untreated controls
Method in brief: as §2

MATIN [20] = test: Post-emergence action against MATIN; type: in vivo, Matricaria inodora; details: post-emergence, dosage 80 g/ha, visual assessment about 3 weeks after treatment vs untreated controls
Method in brief: as §2

PHBPU [21] = test: Post-emergence action against PHBPU; type: in vivo, Pharbitis purpurea; details: post-emergence, dosage 80 g/ha
Method in brief: as §2

POLCO [22] = test: Post-emergence action against POLCO; type: in vivo, Polygonum convolvulus; details: post-emergence, dosage 80 g/ha
Method in brief: as §2

STEME [23] = test: Post-emergence action against STEME; type: in vivo, Stellaria media; details: Stellaria media, 504 h; post-emergence, dosage 80 g/ha
Method in brief: as §2

VIOTR [24] = test: Post-emergence action against VIOTR; type: in vivo, Viola tricolor; details: post-emergence, dosage 80 g/ha
Method in brief: as §2

VERPE [25] = test: Post-emergence action against VERPE; type: in vivo, Veronica persica; details: dosage 80 g/ha
Method in brief: as §2

PHBPU [26] = test: Pre-emergence action against PHBPU; type: in vivo, Pharbitis purpurea; details: Dosage 320 g/ha, pre-emergence
Method in brief: as §1

ALOMY [27] = test: Post-emergence action against ALOMY; type: in vivo, Alopecurus myosuroides; details: Dosage 80 g/ha, post-emergence
Method in brief: as §2

AMARE [28] = test: Post-emergence action against AMARE; type: in vivo, Amaranthus retroflexus; details: post-emergence, dosage 80 g/ha, visual assessment about 3 weeks after treatment vs untreated controls
Method in brief: as §2

SMILES: CC(=O)c1c(C(F)(F)F)ccc(C(=O)Nc2nnnn2C)c1Br [1-195]
- pest or weed control at 320 g/ha (ALOMY [1]; Alopecurus myosuroides, 504 h, read-out: Pre-emergence action against ALOMY (herbicidal activity in percent)): 90%
- pest or weed control at 320 g/ha (AVEFA [2]; Avena fatua, 504 h, read-out: Pre-emergence action against AVEFA (herbicidal activity)): 100%
- pest or weed control at 320 g/ha (CYPES [3]; Cyperus esculentus, 504 h, read-out: Pre-emergence action against CYPES (herbicidal activity)): 100%
- pest or weed control at 320 g/ha (ECHCG [4]; Echinochloa crus-galli, 504 h, read-out: Pre-emergence action against ECHCG (herbicidal activity)): 100%
- pest or weed control at 320 g/ha (LOLMU [5]; Lolium multiflorum, 504 h, read-out: Pre-emergence action against LOLMU (herbicidal activity)): 90%
- pest or weed control at 320 g/ha (SETVI [6]; Setaria viridis, 504 h, read-out: SETVI (Table B8, pre-emergence herbicidal activity)): 100%
- pest or weed control at 320 g/ha (ABUTH [7]; Abutilon theophrasti, 504 h, read-out: Pre-emergence action against ABUTH (herbicidal activity)): 100%
- pest or weed control at 320 g/ha (AMARE [8]; Amaranthus retroflexus, 504 h, read-out: Pre-emergence action against AMARE (herbicidal activity)): 100%
- pest or weed control at 320 g/ha (MATIN [9]; Tripleurospermum inodorum, 504 h): 100%
- pest or weed control at 320 g/ha (POLCO [10]): 80%
- pest or weed control at 320 g/ha (STEME [11]; Stellaria media, 504 h): 90%
- pest or weed control at 320 g/ha (VIOTR [12]; Viola tricolor, 504 h): 100%
- pest or weed control at 320 g/ha (VERPE [13]; Veronica persica, 504 h): 100%
- pest or weed control at 80 g/ha (AVEFA [14]; Avena fatua, 504 h, read-out: Post-emergence action against AVEFA (herbicidal action in percent)): 80%
- pest or weed control at 80 g/ha (CYPES [15]): 80%
- pest or weed control at 80 g/ha (ECHCG [16]; Echinochloa crus-galli, 504 h, read-out: Post-emergence action against ECHCG (herbicidal action in percent)): 90%
- pest or weed control at 80 g/ha (LOLMU [17]; Lolium multiflorum, 504 h, read-out: Post-emergence action against LOLMU (herbicidal action in percent)): 90%
- pest or weed control at 80 g/ha (SETVI [18]; Setaria viridis, 504 h, read-out: Post-emergence action against SETVI (herbicidal action in percent)): 90%
- pest or weed control at 80 g/ha (ABUTH [19]; Abutilon theophrasti, 504 h, read-out: Post-emergence action against ABUTH (herbicidal action in percent)): 80%
- pest or weed control at 80 g/ha (MATIN [20]; Tripleurospermum inodorum, 504 h, read-out: Post-emergence action against MATIN (herbicidal action in percent)): 90%
- pest or weed control at 80 g/ha (PHBPU [21]; Ipomoea purpurea, 504 h): 90%
- pest or weed control at 80 g/ha (POLCO [22]; Fallopia convolvulus, 504 h): 90%
- pest or weed control at 80 g/ha (STEME [23]): 100%
- pest or weed control at 80 g/ha (VIOTR [24]; Viola tricolor, 504 h): 100%
- pest or weed control at 80 g/ha (VERPE [25]; Veronica persica, 504 h): 80%

SMILES: CCn1nnnc1NC(=O)c1ccc(C(F)(F)F)c(C(=O)C2CC2)c1Cl [2-141]
- Pre-emergence action against ALOMY (herbicidal activity in percent) (ALOMY [1]): 100%
- Pre-emergence action against AVEFA (herbicidal activity) (AVEFA [2]): 100%
- Pre-emergence action against CYPES (herbicidal activity) (CYPES [3]): 90%
- Pre-emergence action against ECHCG (herbicidal activity) (ECHCG [4]): 100%
- Pre-emergence action against LOLMU (herbicidal activity) (LOLMU [5]): 100%
- SETVI (Table B8, pre-emergence herbicidal activity) (SETVI [6]): 100%
- Pre-emergence action against ABUTH (herbicidal activity) (ABUTH [7]): 100%
- Pre-emergence action against AMARE (herbicidal activity) (AMARE [8]): 100%
- Pre-emergence action against MATIN (MATIN [9]): 100%
- Pre-emergence action against PHBPU (PHBPU [26]): 80%
- Pre-emergence action against STEME (STEME [11]): 90%
- Pre-emergence action against VIOTR (VIOTR [12]): 100%
- Pre-emergence action against VERPE (VERPE [13]): 100%
- Post-emergence action against ALOMY (ALOMY [27]): 90%
- Post-emergence action against AVEFA (herbicidal action in percent) (AVEFA [14]): 90%
- Post-emergence action against ECHCG (herbicidal action in percent) (ECHCG [16]): 90%
- Post-emergence action against LOLMU (herbicidal action in percent) (LOLMU [17]): 90%
- Post-emergence action against SETVI (herbicidal action in percent) (SETVI [18]): 90%
- Post-emergence action against ABUTH (herbicidal action in percent) (ABUTH [19]): 90%
- Post-emergence action against AMARE (herbicidal action in percent) (AMARE [28]): 90%
- Post-emergence action against MATIN (herbicidal action in percent) (MATIN [20]): 80%
- Post-emergence action against PHBPU (PHBPU [21]): 90
- Post-emergence action against POLCO (POLCO [22]): 90
- Post-emergence action against VIOTR (VIOTR [24]): 100
- Post-emergence action against VERPE (VERPE [25]): 80

— patent publication US11051515B2, “3-acyl-benzamides and their use as herbicides” (Bayer Aktiengesellschaft, priority 2017, dated 2021)
